Holding throughout (format): protein assay
For assay [1], the target named is T1, Glycoside hydrolase family 92 (BT_3962) (Bacteroides thetaiotaomicron) (UniProt Q8A0Q9).
T1 sequence (whole entry): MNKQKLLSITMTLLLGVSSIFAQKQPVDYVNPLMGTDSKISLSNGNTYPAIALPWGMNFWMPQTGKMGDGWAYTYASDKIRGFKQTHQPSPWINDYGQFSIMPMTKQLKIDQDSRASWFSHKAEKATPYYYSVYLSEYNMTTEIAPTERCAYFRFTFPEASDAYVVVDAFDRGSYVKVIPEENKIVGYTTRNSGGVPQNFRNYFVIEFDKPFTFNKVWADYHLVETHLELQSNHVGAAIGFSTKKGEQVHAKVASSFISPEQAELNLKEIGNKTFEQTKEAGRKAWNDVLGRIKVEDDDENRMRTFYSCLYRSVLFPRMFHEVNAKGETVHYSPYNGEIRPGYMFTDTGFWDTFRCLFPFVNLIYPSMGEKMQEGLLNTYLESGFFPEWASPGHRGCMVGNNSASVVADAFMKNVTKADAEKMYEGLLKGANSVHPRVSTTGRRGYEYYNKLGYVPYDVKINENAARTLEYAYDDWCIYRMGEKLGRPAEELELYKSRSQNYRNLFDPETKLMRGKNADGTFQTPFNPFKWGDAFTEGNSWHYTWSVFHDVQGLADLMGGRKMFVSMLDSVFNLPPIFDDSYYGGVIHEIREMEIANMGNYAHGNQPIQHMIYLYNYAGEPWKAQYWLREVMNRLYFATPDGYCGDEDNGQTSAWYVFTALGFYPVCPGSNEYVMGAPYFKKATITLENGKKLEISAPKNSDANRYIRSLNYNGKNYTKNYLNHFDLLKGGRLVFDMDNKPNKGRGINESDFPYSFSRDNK
The assay is described as follows: Activity of Bacteroides thetaiotaomicron GH92 alpha-mannosidase GH92 alpha-mannosidase 3962 assessed as mannose release at 1 mM after 16 hrs by HPLC relative to untreated control after 16 hrs by HPLC.

Assay [2] concerns the target T2, Alpha-1,2-mannosidase family protein (BT_4093) (Bacteroides thetaiotaomicron) (UniProt Q8A0C8).
T2 sequence (whole entry): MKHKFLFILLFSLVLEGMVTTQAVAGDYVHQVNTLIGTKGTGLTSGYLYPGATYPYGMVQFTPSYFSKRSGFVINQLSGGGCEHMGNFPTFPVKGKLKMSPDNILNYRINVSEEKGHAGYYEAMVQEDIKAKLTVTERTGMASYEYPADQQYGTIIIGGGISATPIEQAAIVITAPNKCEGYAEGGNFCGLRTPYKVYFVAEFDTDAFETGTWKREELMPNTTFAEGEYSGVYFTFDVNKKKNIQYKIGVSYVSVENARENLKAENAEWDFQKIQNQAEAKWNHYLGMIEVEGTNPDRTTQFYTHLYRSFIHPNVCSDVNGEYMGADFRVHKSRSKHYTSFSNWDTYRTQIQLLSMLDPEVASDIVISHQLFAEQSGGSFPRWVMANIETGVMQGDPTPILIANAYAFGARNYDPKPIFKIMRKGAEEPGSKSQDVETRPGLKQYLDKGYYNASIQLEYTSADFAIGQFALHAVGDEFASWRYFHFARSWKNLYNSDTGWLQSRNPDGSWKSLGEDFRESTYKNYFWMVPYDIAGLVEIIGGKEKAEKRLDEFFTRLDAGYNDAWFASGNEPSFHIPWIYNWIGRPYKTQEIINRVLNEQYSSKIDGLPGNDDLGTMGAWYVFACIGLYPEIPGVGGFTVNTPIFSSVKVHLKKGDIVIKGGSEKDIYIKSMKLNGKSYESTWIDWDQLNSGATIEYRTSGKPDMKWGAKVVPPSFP
The assay is described as follows: Activity of Bacteroides thetaiotaomicron GH92 alpha-mannosidase GH92 alpha-mannosidase 4093 assessed as mannose release at 1 mM after 16 hrs by HPLC relative to untreated control after 16 hrs by HPLC.

In assay [3] the target is T3, Alpha-1,2-mannosidase (BT_3858) (Bacteroides thetaiotaomicron) (UniProt Q8A113).
T3 sequence (whole entry): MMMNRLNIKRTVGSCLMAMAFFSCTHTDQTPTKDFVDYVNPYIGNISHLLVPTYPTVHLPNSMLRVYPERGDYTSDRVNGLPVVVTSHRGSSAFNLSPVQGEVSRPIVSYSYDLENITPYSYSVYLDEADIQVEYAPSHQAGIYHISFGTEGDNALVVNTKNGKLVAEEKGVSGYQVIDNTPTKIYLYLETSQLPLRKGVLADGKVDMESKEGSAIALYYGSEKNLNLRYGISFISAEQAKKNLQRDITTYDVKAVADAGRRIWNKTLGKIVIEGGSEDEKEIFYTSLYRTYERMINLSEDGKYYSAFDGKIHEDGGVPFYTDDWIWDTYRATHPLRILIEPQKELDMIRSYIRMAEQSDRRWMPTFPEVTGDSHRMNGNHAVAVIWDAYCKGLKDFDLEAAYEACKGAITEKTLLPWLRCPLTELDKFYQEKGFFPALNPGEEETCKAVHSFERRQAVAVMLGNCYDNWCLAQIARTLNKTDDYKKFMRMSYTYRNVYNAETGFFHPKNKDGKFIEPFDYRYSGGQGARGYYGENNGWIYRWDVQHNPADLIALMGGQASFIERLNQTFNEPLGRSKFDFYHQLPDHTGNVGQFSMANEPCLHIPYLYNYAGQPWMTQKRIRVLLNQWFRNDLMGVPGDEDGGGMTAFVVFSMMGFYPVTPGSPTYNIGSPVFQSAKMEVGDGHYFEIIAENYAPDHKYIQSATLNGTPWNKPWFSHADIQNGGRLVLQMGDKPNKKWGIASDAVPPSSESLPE
The assay is described as follows: Activity of Bacteroides thetaiotaomicron GH92 alpha-mannosidase GH92 alpha-mannosidase 3858 assessed as mannose release at 1 mM after 16 hrs by HPLC relative to untreated control after 16 hrs by HPLC.

Molecules are shown by their SMILES. Calls of active or inactive are those of the source. The calls are words filed in the database; no cut-off is given here.

On to `OC[C@H]1O[C@H](O[C@@H]2[C@H](O)[C@@H](O)O[C@H](CO)[C@H]2O)[C@@H](O)[C@@H](O)[C@@H]1O`, for which the outcome in assay [1] and in assay [2] was inactive.

With `OC[C@H]1O[C@H](O[C@H]2[C@H](O)[C@H](O)[C@@H](O)O[C@@H]2CO)[C@@H](O)[C@@H](O)[C@@H]1O`, the values for the Activity in assay [1], in assay [2] and in assay [3] were 0.042%, 100% and 0.1%, respectively.

With `OC[C@H]1O[C@H](O[C@H]2[C@@H](O)[C@H](O)[C@@H](CO)O[C@@H]2O)[C@@H](O)[C@@H](O)[C@@H]1O`, the Activity was determined as 100% in assay [1] and 0.045% in assay [3]. Moreover, in assay [2], the outcome was inactive.

`OC[C@H]1O[C@H](OC[C@H]2O[C@H](O)[C@@H](O)[C@@H](O)[C@@H]2O)[C@@H](O)[C@@H](O)[C@@H]1O`: the Activity in assay [1] came out at 0.0031%; in assay [3] it was 0.0025%. In addition, in assay [2], the result was inactive.

The record behind these values is ChEMBL document CHEMBL1250451, “Mechanistic insights into a Ca2+-dependent family of alpha-mannosidases in a human gut symbiont” (Nat Chem Biol, 2010).
